These molecules were tested against T1, MEK1^CA (human GST-MEK1, constitutively active, Ser218Asp and Ser222Asp) (Homo sapiens, UniProt Q02750, S218D/S222D) (assay: MEK1 enzymatic activity assay (MEK1^CA / ERK2 / MBP, [γ-33P]ATP incorporation)). Conditions: Table 1, compounds of formula I; read-out: Avg IC50.
T1 construct: GST; made in house; host or cells: Escherichia coli
Format: biochemical
Method in brief: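 Cascade assay: 25 µl reactions with 0.002 nmol E. coli-expressed GST-MEK1 S218D/S222D, 0.02 nmol His-tagged mouse ERK2, 0.25 nmol MBP, 0.25 nmol unlabeled ATP and 0.1 µCi [γ-33P]ATP. Compound preincubated 30 min at ambient temperature with MEK1/ERK2; stopped with TCA, 33P-labelled protein filter-captured and scintillation-counted.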

T1 sequence (Q02750 whole entry S218D/S222D): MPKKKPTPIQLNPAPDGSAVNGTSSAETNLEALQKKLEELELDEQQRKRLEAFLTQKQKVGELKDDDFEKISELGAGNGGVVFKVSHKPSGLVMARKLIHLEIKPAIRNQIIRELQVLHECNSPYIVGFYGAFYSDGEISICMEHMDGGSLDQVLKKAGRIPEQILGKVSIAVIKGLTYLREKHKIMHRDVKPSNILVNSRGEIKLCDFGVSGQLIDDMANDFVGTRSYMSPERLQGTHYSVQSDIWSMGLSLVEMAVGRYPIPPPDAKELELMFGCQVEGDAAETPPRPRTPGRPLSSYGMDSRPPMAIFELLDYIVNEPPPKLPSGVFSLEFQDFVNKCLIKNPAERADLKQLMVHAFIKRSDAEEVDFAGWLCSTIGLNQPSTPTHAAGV

Row | SMILES | IC50 [nM]
1 | CC(CO)NC(=N)c1c(O)nsc1Nc1ccc(Oc2ccc(S(C)(=O)=O)cc2)cc1 (centres unmarked) [compound 491] | > 500
2 | COC(=O)c1ccccc1Oc1ccc(Nc2snc(O)c2C(=N)NC(C)CO)cc1 (centres unmarked) [compound 493] | 1 to 100
3 | CCOC(=O)c1ccccc1Oc1ccc(Nc2snc(O)c2C(=N)NC(C)CO)cc1 (centres unmarked) [compound 494] | 1 to 100
4 | COC(=O)c1cccc(Nc2snc(O)c2C(=N)NCC(C)O)c1C (centres unmarked) [compound 495] | > 500
5 | CCOC(=O)c1cccc(Nc2snc(O)c2C(=N)NCC(C)O)c1 (centres unmarked) [compound 496] | > 500
6 | CCOC(=O)c1ccc(Oc2ccc(Nc3snc(O)c3C(=N)NC(C)CO)cc2)cc1 (centres unmarked) [compound 497] | 1 to 100
7 | CCOC(=O)c1cccc(Nc2snc(O)c2C(=N)NCC(O)O)c1 [compound 498] | 100 to 500
8 | COC(=O)c1cccc(Nc2snc(O)c2C(=N)NCC(O)O)c1C [compound 499] | 100 to 500
9 | CC(O)CNC(=N)c1c(O)nsc1Nc1ccc(Oc2ccccc2C(=O)NCC(C)O)cc1 (centres unmarked) [compound 507] | > 500
10 | N=C(NCC(O)CO)c1c(O)nsc1Nc1ccc(Oc2ccccc2C(=O)NCC(O)CO)cc1 (centres unmarked) [compound 508] | > 500
11 | CC(CO)NC(=N)c1c(O)nsc1Nc1ccc(-c2nc3ccccc3[nH]2)cc1 (centres unmarked) [compound 509] | > 500
12 | CC(O)CNC(=N)c1c(O)nsc1Nc1ccc(-c2nc3ccccc3[nH]2)cc1 (centres unmarked) [compound 510] | > 500
13 | N=C(NCCO)c1c(O)nsc1Nc1ccc(-c2nc3ccccc3[nH]2)cc1 [compound 511] | > 500
14 | N=C(NCC(O)CO)c1c(O)nsc1Nc1ccc(-c2nc3ccccc3[nH]2)cc1 (centres unmarked) [compound 512] | > 500

Continued, values first:

Row | IC50 [nM] | SMILES
15 | 1 to 100 | CC(C)NC(=N)c1c(O)nsc1Nc1cc(F)c(Oc2cc(Cl)ccc2Cl)cc1F [compound 475]
16 | 1 to 100 | CC(CO)NC(=N)c1c(O)nsc1Nc1cc(F)c(Oc2cc(Cl)ccc2Cl)cc1F (centres unmarked) [compound 476]
17 | 1 to 100 | N=C(NCC(O)CO)c1c(O)nsc1Nc1cc(F)c(Oc2cc(Cl)ccc2Cl)cc1F (centres unmarked) [compound 477]
18 | 1 to 100 | CC(O)CNC(=N)c1c(O)nsc1Nc1cc(F)c(Oc2cc(Cl)ccc2Cl)cc1F (centres unmarked) [compound 478]
19 | > 500 | COC(=O)c1cccc(Nc2snc(O)c2C(=N)NC(C)C)c1C [compound 479]
20 | 100 to 500 | CCOC(=O)c1ccc(Oc2ccc(Nc3snc(O)c3C(=N)NC(C)C)cc2)cc1 [compound 485]
21 | > 500 | CC(C)NC(=N)c1c(O)nsc1Nc1ccc(Oc2ccc(S(C)(=O)=O)cc2)cc1 [compound 486]
22 | 1 to 100 | COC(=O)c1ccccc1Oc1ccc(Nc2snc(O)c2C(=N)NC(C)C)cc1 [compound 487]
23 | > 500 | CCOC(=O)c1cccc(Nc2snc(O)c2C(=N)NC(C)C)c1 [compound 488]
24 | > 500 | CCOC(=O)c1cccc(Nc2snc(O)c2C(=N)NC(C)CO)c1 (centres unmarked) [compound 489]
25 | 100 to 500 | COC(=O)c1cccc(Nc2snc(O)c2C(=N)NC(C)CO)c1C (centres unmarked) [compound 490]
26 | 100 to 500 | Cc1cc(Oc2cccc(C(F)(F)F)c2)ccc1Nc1snc(O)c1C(=N)NC(CO)C(C)C (centres unmarked) [compound 492]
27 | 1 to 100 | Cc1cc(Oc2cccc(F)c2F)ccc1Nc1snc(O)c1C(=N)NO [compound 500]
28 | 100 to 500 | Cc1cc(Oc2cccc(F)c2F)ccc1Nc1snc(O)c1C(=N)N(O)C(C)C [compound 501]
29 | 1 to 100 | COCC(C)NC(=N)c1c(O)nsc1Nc1ccc(Oc2cccc(F)c2F)cc1C (centres unmarked) [compound 502]
30 | 100 to 500 | Cc1cc(Oc2cccc(F)c2F)ccc1Nc1snc(O)c1C(=N)NC(CO)C(C)C (centres unmarked) [compound 503]
31 | 100 to 500 | CCC(CO)NC(=N)c1c(O)nsc1Nc1ccc(Oc2cccc(F)c2F)cc1C (centres unmarked) [compound 504]
32 | 1 to 100 | COCCNC(=N)c1c(O)nsc1Nc1ccc(Oc2cccc(F)c2F)cc1C [compound 505]
33 | 100 to 500 | CC[C@@H](CO)NC(=N)c1c(O)nsc1Nc1ccc(Oc2cccc(C(F)(F)F)c2)cc1C [compound 506]

Same assay, conditions: Table 3, benzamides of formula X; read-out: IC 50

Row | IC50 [nM] | SMILES
34 | 100 to 500 | N=C(NCCO)c1c(O)nsc1Nc1ccc(C(=O)Nc2ccccc2)cc1 [drawing 809]
35 | 1 to 100 | CC(C)NC(=N)c1c(O)nsc1Nc1ccc(C(=O)Nc2ccccc2)cc1 [drawing 810]
36 | > 500 | N=C(NCC1CCCCC1)c1c(O)nsc1Nc1ccc(C(=O)Nc2ccccc2)cc1 [drawing 811]
37 | 1 to 100 | CC(CO)NC(=N)c1c(O)nsc1Nc1ccc(C(=O)Nc2ccccc2)cc1 (centres unmarked) [drawing 812]

Same assay, conditions: Table 4, R' is (CH2)1 or 2-G; read-out: IC50

Row | SMILES | IC50 [nM]
38 | N=C(NCCc1ccccc1)c1c(O)nsc1Nc1ccc(Oc2ccccc2)cc1 [drawing 821] | 100 to 500
39 | Cc1ccc(Oc2ccc(Nc3snc(O)c3C(=N)NCC3CCCCC3)cc2)cc1 [drawing 823] | 1 to 100
40 | Cc1ccc(Oc2ccc(Nc3snc(O)c3C(=N)NCC3CCCCC3)cc2)cn1 [drawing 824] | 100 to 500
41 | Cc1ccc(Oc2ccc(Nc3snc(O)c3C(=N)NCC3CCCCC3)cn2)cn1 [drawing 825] | > 500
42 | N=C(NCC1CCCCC1)c1c(O)nsc1Nc1ccc(Sc2ccccc2)cc1 [drawing 826] | 1 to 100
43 | N=C(NCC1CCCCC1)c1c(O)nsc1Nc1ccc(Oc2cncnc2)cc1 [drawing 827] | > 500
44 | N=C(NCC1CCCCC1)c1c(O)nsc1Nc1ccc(Oc2ccccc2)nc1 [drawing 828] | 100 to 500
45 | N=C(NCCN1CCNCC1)c1c(O)nsc1Nc1ccc(Oc2cc(F)cc(F)c2)cc1 [drawing 829] | 1 to 100
46 | N=C(NCCN1CCOCC1)c1c(O)nsc1Nc1ccc(Oc2cc(F)cc(F)c2)cc1 [drawing 830] | 100 to 500
47 | N=C(NCC1CCCCC1)c1c(O)nsc1Nc1ccc(Sc2ccc([N+](=O)[O-])cc2)cc1 [drawing 831] | 100 to 500

Now from value to molecule:

Row | IC50 [nM] | SMILES
48 | 1 to 100 | N=C(NCCc1cnc[nH]1)c1c(O)nsc1Nc1ccc(Oc2cc(Cl)ccc2Cl)cc1
49 | 100 to 500 | CC1CN(CCNC(=N)c2c(O)nsc2Nc2ccc(Oc3cc(Cl)ccc3Cl)cc2)CC(C)O1 (centres unmarked)
50 | 1 to 100 | N=C(NCCN1CCCC1=O)c1c(O)nsc1Nc1ccc(Oc2cc(Cl)ccc2Cl)cc1

Each molecule was assayed on phosphorylated ERK in MDA-MB-231 breast cancer cells (assay: Western blotting for phosphorylated ERK in EGF-stimulated MDA-MB-231 cells). Conditions: Homo sapiens, Table 4, compound 30 min, 100 ng/ml EGF 5 min.
Format: cell-based
Experimental: Effects of compounds in the cell were determined by Western blotting for phosphorylated ERK. MDA-MB-231 breast cancer cells were plated in a 48 well plate at 20,000 cells per well and grown in a 37° humidified CO2 incubator. The following day, the growth media (DMEM+10% fetal bovine serum) was removed and replaced with starve media (DMEM+0.1% fetal bovine serum). Cells were incubated in the starve media for sixteen hours and then treated with a range of compound concentrations for thirty minutes. After incubation with compound, cells were stimulated with 100 ng/ml EGF for five minutes. The cells were then lysed and analyzed by Western blot using a monoclonal antibody raised to phosphorylated ERK. The signal was amplified using a secondary antibody conjugated to a near-IR dye and detected on a Licor Odyssey scanner.

Row | SMILES | EC50 [nM]
51 | N=C(NCCN1CCNC(=O)C1)c1c(O)nsc1Nc1ccc(Oc2cc(Cl)ccc2Cl)cc1 | 1 to 100
52 | N=C(NCCc1cnc[nH]1)c1c(O)nsc1Nc1ccc(Oc2cc(Cl)ccc2Cl)cc1 | 1 to 100
53 | N=C(NCCN1CCOCC1)c1c(O)nsc1Nc1ccc(Oc2cc(Cl)ccc2Cl)cc1 | 1 to 100
54 | CC1CN(CCNC(=N)c2c(O)nsc2Nc2ccc(Oc3cc(Cl)ccc3Cl)cc2)CC(C)O1 (centres unmarked) | 100 to 500
55 | CN1CCN(CCNC(=N)c2c(O)nsc2Nc2ccc(Oc3cc(Cl)ccc3Cl)cc2)CC1 | 100 to 500
56 | N=C(NCCN1CCCC1=O)c1c(O)nsc1Nc1ccc(Oc2cc(Cl)ccc2Cl)cc1 | 100 to 500
57 | N=C(NCC1CCCO1)c1c(O)nsc1Nc1ccc(Oc2cc(Cl)ccc2Cl)cc1 (centres unmarked) | 1 to 100
58 | N=C(NCCN1CCNCC1)c1c(O)nsc1Nc1ccc(Oc2cc(Cl)ccc2Cl)cc1 | 1 to 100
59 | N=C(NCCc1ccccc1)c1c(O)nsc1Nc1ccc(Oc2ccccc2)cc1 [drawing 821] | 100 to 500

Source: patent US7652047B2, “Phenylamino isothiazole carboxamidines as MEK inhibitors” (Ardea Biosciences, Inc., priority 2005, dated 2010)
